Experimental data published in US7115648B2, “Indole-amide derivatives and their use as glycogen phosphorylase inhibitors” (AstraZeneca AB, priority 2002, dated 2006).
pIC50: −log10 of the molar value.

How the values were obtained:
hepatocytes = details: cited from earlier work
db/db and ob/ob mice = details: dose related; cited from earlier work
conscious dogs = details: cited from earlier work
[1] = target: T1, Human recombinant liver glycogen phosphorylase a (hrl GPa) (Homo sapiens, UniProt P06737); assay: Glycogen degradation multienzyme coupled assay (NADH fluorescence); format: biochemical; details: glycogen degradation direction
T1 sequence (P06737 1-847): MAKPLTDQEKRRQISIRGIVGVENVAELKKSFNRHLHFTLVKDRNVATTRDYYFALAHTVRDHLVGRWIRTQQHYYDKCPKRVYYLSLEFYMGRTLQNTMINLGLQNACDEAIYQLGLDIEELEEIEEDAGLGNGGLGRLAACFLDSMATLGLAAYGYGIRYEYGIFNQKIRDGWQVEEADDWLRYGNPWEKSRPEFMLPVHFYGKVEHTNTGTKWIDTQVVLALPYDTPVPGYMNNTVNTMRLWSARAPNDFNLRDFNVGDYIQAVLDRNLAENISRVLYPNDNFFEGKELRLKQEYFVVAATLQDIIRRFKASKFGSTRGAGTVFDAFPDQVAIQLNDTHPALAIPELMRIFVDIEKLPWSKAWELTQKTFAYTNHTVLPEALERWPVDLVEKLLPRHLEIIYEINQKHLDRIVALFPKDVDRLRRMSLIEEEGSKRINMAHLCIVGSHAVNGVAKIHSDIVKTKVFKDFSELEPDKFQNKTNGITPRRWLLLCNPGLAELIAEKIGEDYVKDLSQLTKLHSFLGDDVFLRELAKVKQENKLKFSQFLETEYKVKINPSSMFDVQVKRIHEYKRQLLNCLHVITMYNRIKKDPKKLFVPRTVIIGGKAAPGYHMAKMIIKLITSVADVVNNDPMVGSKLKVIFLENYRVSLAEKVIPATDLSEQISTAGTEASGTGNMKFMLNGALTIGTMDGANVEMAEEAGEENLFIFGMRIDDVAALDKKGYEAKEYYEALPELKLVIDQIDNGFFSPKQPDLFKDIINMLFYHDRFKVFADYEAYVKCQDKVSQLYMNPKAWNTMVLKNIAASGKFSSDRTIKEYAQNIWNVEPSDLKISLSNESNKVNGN
Procedure: The activity of the compounds is alternatively determined by measuring the inhibitory effect of the compounds on glycogen degradation, the production of glucose-1-phosphate from glycogen is monitored by the multienzyme coupled assay, as described in EP 0 846 464 A2, general method of Pesce et al (Pesce, M A, Bodourian, S H, Harris, R C, and Nicholson, J F (1977) Clinical Chemistry 23, […]). The reactions were in 384 well microplate format in a volume of 50 μl. The change in fluorescence due to the conversion of the co-factor NAD to NADH is measured at 340 nm excitation, 465 nm emission in a Tecan Ultra Multifunctional Microplate Reader. The reaction is in 50 mM HEPES, 3.5 mM KH2PO4, 2.5 mM MgCl2, 2.5 mM ethylene glycol-bis(b-aminoethyl ether) N,N,N′,N′-tetraacetic acid, 100 mM KCl, 8 mM D-(+)-glucose pH7.2, containing 0.5 mM dithiothreitol, the assay buffer solution. Human recombinant liver glycogen phosphorylase a (hrl GPa) 20 nM is pre-incubated in assay buffer solution with 6.25 mM NAD, 1.25 mg type III glycogen at 1.25 mg ml^−1 the reagent buffer, for 30 minutes. […] The non-inhibited activity of GPa is measured in the presence of 10 μl 5% DMSO in assay buffer solution and maximum inhibition measured in the presence of 5 mgs ml^−1 N-ethylmaleimide. […] Relative Fluoresence Units (RFUs) are measured at 340 nm excitation, 465 nm emission. […]

Row | SMILES | glucagon stimulated glycogenolysis (hepatocytes) | glucose output in hepatocytes (hepatocytes) | plasma glucose concentration (db/db and ob/ob mice) | arterial plasma glucose following a glucagon challenge (conscious dogs) | hepatic glucose output following a glucagon challenge (conscious dogs) | pIC50 [1]
1 | O=C(N[C@@H](Cc1ccc(F)cc1)C(=O)N1CCC(O)CC1)c1cc2cc(Cl)ccc2[nH]1 [CP320626] | reduce | reduce | reduced, in a dose related manner |  |  | 
2 | CCN1C(C)=C(C(=O)OC(C)C)C(c2ccccc2Cl)C2=C1COC2=O (stereo not drawn) [Bay R 3401] |  |  |  | reduced significantly | reduced significantly | 
3 | CN(C)C(=O)[C@H](O)[C@H](Cc1ccccc1)NC(=O)c1cc2cc(Cl)ccc2[nH]1 [CP91149] | reduce | reduce | reduced, in a dose related manner |  |  | 
4 | O=C(NCC(=O)N(CCO)c1ccccc1)c1cc2cc(Cl)ccc2[nH]1 [Example 1, 5-Chloro-N-{2-[(2-hydroxyethyl)phenylamino]-2-oxoethyl}-1H-indole-2-carboxamide] |  |  |  |  |  | 6.26
